Assay results as given in the supplement of paper PMC10307832.

compound: N#CC1(c2ccc(NC(=O)c3cccnc3NCc3ccncc3)cc2)CCCC1 [Apatinib] + CCNC(=O)c1noc(-c2cc(C(C)C)c(O)cc2O)c1-c1ccc(CN2CCOCC2)cc1 [Luminespib] (partner 0.01 µM); experiment: relative viability (nuclei count vs DMSO), 5 days (fraction); higher = more cells survive; conditions: first compound 0.08 µM
Method in brief: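 Dosing by pin tool came one day after lung cancer cell lines were seeded in 1536-well plates, using either one drug or a fixed anchor-drug dose plus five library-drug doses (not always all listed) in √10 steps. After 5 days, nuclei were counted on 4× images. Relative viability is treated-well nuclei count divided by vehicle-well nuclei count, and values are medians of duplicate plates.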

| Cell Line | relative viability |
| --- | --- |
| NCI-H322M | 0.871 |
| NCI-H358 | 0.246 |
| NCI-H441 | 0.261 |
| NCI-H520 | 0.218 |
| NCI-H596 | 1.09 |
| NCI-H647 | 0.235 |
| NCI-H650 | 0.774 |
| NCI-H661 | 0.973 |
| NCI-H727 | 0.307 |
| NCI-H838 | 0.332 |
| NCI-H1355 | 0.672 |
| NCI-H1395 | 0.713 |
| NCI-H1437 | 1.11 |
| NCI-H1651 | 0.981 |
| NCI-H1666 | 0.948 |
| NCI-H1734 | 0.19 |

| Cell Line | relative viability |
| --- | --- |
| NCI-H1755 | 0.295 |
| NCI-H1792 | 0.495 |
| NCI-H1793 | 0.185 |
| NCI-H1915 | 0.891 |
| NCI-H1944 | 0.701 |
| NCI-H1975 | 0.167 |
| NCI-H1993 | 0.885 |
| NCI-H2009 | 1.1 |
| NCI-H2023 | 0.981 |
| NCI-H2085 | 0.396 |
| NCI-H2087 | 0.186 |
| NCI-H2126 | 0.963 |
| NCI-H2228 | 0.126 |
| NCI-H2347 | 0.501 |
| NCI-H2405 | 0.675 |
| NCI-H3122 | 0.0784 |

same assay, conditions: first compound 0.253 µM

| Cell Line | relative viability |
| --- | --- |
| NCI-H322M | 0.845 |
| NCI-H358 | 0.368 |
| NCI-H441 | 0.296 |
| NCI-H520 | 0.245 |
| NCI-H596 | 1.2 |
| NCI-H647 | 0.144 |
| NCI-H650 | 0.831 |
| NCI-H661 | 0.873 |
| NCI-H727 | 0.31 |
| NCI-H838 | 0.286 |
| NCI-H1355 | 0.809 |
| NCI-H1395 | 0.686 |
| NCI-H1437 | 1.12 |
| NCI-H1651 | 1.12 |
| NCI-H1666 | 1.07 |
| NCI-H1734 | 0.187 |

| Cell Line | relative viability |
| --- | --- |
| NCI-H1755 | 0.695 |
| NCI-H1792 | 0.521 |
| NCI-H1793 | 0.183 |
| NCI-H1915 | 0.852 |
| NCI-H1944 | 0.773 |
| NCI-H1975 | 0.195 |
| NCI-H1993 | 0.906 |
| NCI-H2009 | 1.09 |
| NCI-H2023 | 0.917 |
| NCI-H2085 | 0.527 |
| NCI-H2087 | 0.183 |
| NCI-H2126 | 0.774 |
| NCI-H2228 | 0.122 |
| NCI-H2347 | 0.415 |
| NCI-H2405 | 0.695 |
| NCI-H3122 | 0.0827 |

same assay, conditions: first compound 0.8 µM

| Cell Line | relative viability |
| --- | --- |
| NCI-H322M | 0.9 |
| NCI-H358 | 0.684 |
| NCI-H441 | 0.253 |
| NCI-H520 | 0.223 |
| NCI-H596 | 0.926 |
| NCI-H647 | 0.267 |
| NCI-H650 | 0.872 |
| NCI-H661 | 0.898 |
| NCI-H727 | 0.393 |
| NCI-H838 | 0.388 |
| NCI-H1355 | 0.761 |
| NCI-H1395 | 0.784 |
| NCI-H1437 | 1.11 |
| NCI-H1651 | 0.855 |
| NCI-H1666 | 1.04 |
| NCI-H1734 | 0.275 |

| Cell Line | relative viability |
| --- | --- |
| NCI-H1755 | 0.524 |
| NCI-H1792 | 0.43 |
| NCI-H1793 | 0.157 |
| NCI-H1915 | 0.737 |
| NCI-H1944 | 0.667 |
| NCI-H1975 | 0.229 |
| NCI-H1993 | 0.886 |
| NCI-H2009 | 0.988 |
| NCI-H2023 | 0.708 |
| NCI-H2085 | 0.429 |
| NCI-H2087 | 0.185 |
| NCI-H2126 | 0.985 |
| NCI-H2228 | 0.129 |
| NCI-H2347 | 0.404 |
| NCI-H2405 | 0.653 |
| NCI-H3122 | 0.0738 |

same assay, conditions: first compound 2.53 µM

| Cell Line | relative viability |
| --- | --- |
| NCI-H322M | 1.01 |
| NCI-H358 | 0.382 |
| NCI-H441 | 0.406 |
| NCI-H520 | 0.216 |
| NCI-H596 | 0.97 |
| NCI-H647 | 0.136 |
| NCI-H650 | 0.645 |
| NCI-H661 | 0.95 |
| NCI-H727 | 0.387 |
| NCI-H838 | 0.282 |
| NCI-H1355 | 0.647 |
| NCI-H1395 | 0.604 |
| NCI-H1437 | 0.923 |
| NCI-H1651 | 0.579 |
| NCI-H1666 | 0.983 |
| NCI-H1734 | 0.165 |

| Cell Line | relative viability |
| --- | --- |
| NCI-H1755 | 0.491 |
| NCI-H1792 | 0.308 |
| NCI-H1793 | 0.172 |
| NCI-H1915 | 0.692 |
| NCI-H1944 | 0.644 |
| NCI-H1975 | 0.176 |
| NCI-H1993 | 0.757 |
| NCI-H2009 | 0.992 |
| NCI-H2023 | 0.507 |
| NCI-H2085 | 0.421 |
| NCI-H2087 | 0.135 |
| NCI-H2126 | 0.826 |
| NCI-H2228 | 0.13 |
| NCI-H2347 | 0.416 |
| NCI-H2405 | 0.621 |
| NCI-H3122 | 0.0782 |

same assay, conditions: first compound 8 µM

| Cell Line | relative viability |
| --- | --- |
| NCI-H322M | 1.07 |
| NCI-H358 | 0.236 |
| NCI-H441 | 0.308 |
| NCI-H520 | 0.207 |
| NCI-H596 | 0.903 |
| NCI-H647 | 0.23 |
| NCI-H650 | 0.524 |
| NCI-H661 | 0.865 |
| NCI-H727 | 0.233 |
| NCI-H838 | 0.249 |
| NCI-H1355 | 0.563 |
| NCI-H1395 | 0.527 |
| NCI-H1437 | 0.817 |
| NCI-H1651 | 0.652 |
| NCI-H1666 | 1.05 |
| NCI-H1734 | 0.193 |
| NCI-H1755 | 0.479 |
| NCI-H1792 | 0.274 |
| NCI-H1793 | 0.193 |
| NCI-H1915 | 0.544 |
| NCI-H1944 | 0.494 |
| NCI-H1975 | 0.262 |
| NCI-H1993 | 0.673 |
| NCI-H2009 | 0.86 |
| NCI-H2023 | 0.649 |
| NCI-H2085 | 0.361 |
| NCI-H2087 | 0.149 |
| NCI-H2126 | 0.832 |
| NCI-H2228 | 0.126 |
| NCI-H2347 | 0.789 |
